Measured values: patent US11524951B2, “2-(2,4,5-substituted-anilino)pyrimidine compounds” (AstraZeneca AB, priority 2011, dated 2022)

Experiments:
Assay type in all cases: cell-based
Exon19 deletion EGFR = biological target: T1, Exon19 deletion EGFR (Homo sapiens, UniProt P00533, DEL746-750); experiment: Exon19 deletion EGFR (activating single mutant) cellular phosphorylation assay; details: PC9 human lung cells (Exon 19 deletion EGFR); endogenous p-EGFR in cell lysates by ELISA; 2 h with compound; read-out: Assay 1 (IC50)
T1 construct: Assays to measure cellular phosphorylation of endogenous p-EGFR in cell lysates; endogenous in cells; host or cells: PC9 (human lung cell line)
T1 sequence (P00533 with tags, fused parts or gaps DEL746-750): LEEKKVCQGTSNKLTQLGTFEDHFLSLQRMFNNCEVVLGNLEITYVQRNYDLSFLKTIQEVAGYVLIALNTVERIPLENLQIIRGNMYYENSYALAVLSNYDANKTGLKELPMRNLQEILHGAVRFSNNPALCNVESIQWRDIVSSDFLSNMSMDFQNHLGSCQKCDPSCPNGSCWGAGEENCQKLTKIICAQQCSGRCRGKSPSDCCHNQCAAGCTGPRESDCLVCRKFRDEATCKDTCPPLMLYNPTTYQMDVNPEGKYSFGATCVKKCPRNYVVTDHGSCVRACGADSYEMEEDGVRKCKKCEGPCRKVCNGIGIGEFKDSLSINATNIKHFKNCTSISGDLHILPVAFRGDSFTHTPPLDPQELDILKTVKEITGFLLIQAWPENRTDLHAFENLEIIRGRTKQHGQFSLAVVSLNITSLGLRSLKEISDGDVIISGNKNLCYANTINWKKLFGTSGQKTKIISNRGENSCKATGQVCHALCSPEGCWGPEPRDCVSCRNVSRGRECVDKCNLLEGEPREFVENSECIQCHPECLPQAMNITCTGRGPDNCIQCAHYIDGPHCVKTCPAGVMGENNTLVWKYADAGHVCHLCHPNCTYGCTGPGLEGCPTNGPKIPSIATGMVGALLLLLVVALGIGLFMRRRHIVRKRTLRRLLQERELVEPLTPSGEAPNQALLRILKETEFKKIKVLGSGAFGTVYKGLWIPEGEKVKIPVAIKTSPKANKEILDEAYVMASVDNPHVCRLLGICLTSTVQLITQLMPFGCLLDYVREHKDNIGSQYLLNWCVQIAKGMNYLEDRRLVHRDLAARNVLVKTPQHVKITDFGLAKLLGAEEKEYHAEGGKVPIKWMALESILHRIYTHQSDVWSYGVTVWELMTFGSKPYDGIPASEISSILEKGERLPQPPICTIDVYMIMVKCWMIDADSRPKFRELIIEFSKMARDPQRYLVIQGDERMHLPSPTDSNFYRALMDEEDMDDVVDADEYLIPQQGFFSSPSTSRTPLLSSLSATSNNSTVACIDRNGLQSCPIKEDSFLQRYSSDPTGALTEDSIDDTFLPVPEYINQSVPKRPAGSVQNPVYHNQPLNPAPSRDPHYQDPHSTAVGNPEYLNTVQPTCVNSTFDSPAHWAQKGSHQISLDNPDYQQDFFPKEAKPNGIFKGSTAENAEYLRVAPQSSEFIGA
Protocol: Assay 1: Exon19 Deletion EGFR (Activating Single Mutant) Cellular Phosphorylation Assay
The human lung cell line PC9 (Exon 19 deletion EGFR) were obtained from the American type Culture Collection. […] Cells were grown in a humidified incubator at 37° C. with 5% CO2. Assays to measure cellular phosphorylation of endogenous p-EGFR in cell lysates were carried out according to the protocol described in the R&D Systems DuoSet IC Human Phospho-EGF R ELISA (R&D Systems catalogue number #DYC1095). 40 μL of cells were seeded (10000 cells/well) in growth medium in Corning black, clear-bottomed 384-well plates and incubated at 37° C. with 5% CO2 overnight. […] Plates were incubated for a further 2 h, then following aspiration of medium, 40 μL 1× lysis buffer was added to each well. Greiner black high bind 384-well plates were coated with capture antibody and then blocked with 3% BSA. Following removal of block, […], of lysate were transferred to the Greiner black high bind 384-well plates and incubated for 2 hours. Following aspiration and washing of the plates with PBS, 20 μL of detection antibody were added and incubated for 2 hours. […] The data obtained with each compound was exported into a suitable software package (such as Origin) to perform curve fitting analysis.

L858R/T790M EGFR = biological target: T2, L858R/T790M EGFR (Homo sapiens, UniProt P00533, L858R/T790M); experiment: L858R/T790M EGFR (double mutant) cellular phosphorylation assay; details: NCI-H1975 human lung cells; endogenous p-EGFR in cell lysates by ELISA; 2 h with compound
T2 construct: Assays to measure cellular phosphorylation of endogenous p-EGFR in cell lysates; endogenous in cells; host or cells: NCI-H1975 (human lung cell line)
T2 sequence (P00533 25-1210 T790M/L858R): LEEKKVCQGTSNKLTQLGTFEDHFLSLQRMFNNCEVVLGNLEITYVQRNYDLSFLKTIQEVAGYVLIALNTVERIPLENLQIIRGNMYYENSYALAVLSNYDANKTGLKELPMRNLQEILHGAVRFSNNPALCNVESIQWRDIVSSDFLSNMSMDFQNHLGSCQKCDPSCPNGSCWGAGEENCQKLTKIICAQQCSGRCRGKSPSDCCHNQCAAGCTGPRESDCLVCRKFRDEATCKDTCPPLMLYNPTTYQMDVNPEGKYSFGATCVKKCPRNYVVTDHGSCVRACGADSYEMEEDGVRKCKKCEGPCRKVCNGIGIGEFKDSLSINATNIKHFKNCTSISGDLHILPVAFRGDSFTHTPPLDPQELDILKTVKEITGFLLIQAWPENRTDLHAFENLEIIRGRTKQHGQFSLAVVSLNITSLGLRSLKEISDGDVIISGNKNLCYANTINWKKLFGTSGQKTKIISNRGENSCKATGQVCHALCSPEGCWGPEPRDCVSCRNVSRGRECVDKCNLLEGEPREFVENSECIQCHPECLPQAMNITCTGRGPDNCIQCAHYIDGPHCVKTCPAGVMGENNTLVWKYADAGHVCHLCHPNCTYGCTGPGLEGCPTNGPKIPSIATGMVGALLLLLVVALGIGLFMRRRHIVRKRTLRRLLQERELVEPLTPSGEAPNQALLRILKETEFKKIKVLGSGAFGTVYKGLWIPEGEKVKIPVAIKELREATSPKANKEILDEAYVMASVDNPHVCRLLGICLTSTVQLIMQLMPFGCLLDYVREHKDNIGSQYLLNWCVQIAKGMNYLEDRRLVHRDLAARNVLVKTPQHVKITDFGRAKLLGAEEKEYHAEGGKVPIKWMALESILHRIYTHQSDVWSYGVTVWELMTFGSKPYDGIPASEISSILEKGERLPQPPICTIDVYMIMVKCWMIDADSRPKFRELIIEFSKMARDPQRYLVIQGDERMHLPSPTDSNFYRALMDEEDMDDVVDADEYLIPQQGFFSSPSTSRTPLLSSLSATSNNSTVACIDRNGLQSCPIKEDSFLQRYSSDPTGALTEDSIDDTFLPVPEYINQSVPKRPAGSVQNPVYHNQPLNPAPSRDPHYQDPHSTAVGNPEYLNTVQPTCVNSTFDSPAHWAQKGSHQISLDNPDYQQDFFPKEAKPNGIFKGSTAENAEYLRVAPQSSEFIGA
Protocol: Assay 2: L858R/T790M EGFR (Double Mutant) Cellular Phosphorylation Assay
The human lung cell lines NCI-H1975 were obtained from the American type Culture Collection. […] Cells were grown in a humidified incubator at 37° C. with 5% CO2.
Assays to measure cellular phosphorylation of endogenous p-EGFR in cell lysates were carried out according to the protocol described in the R&D Systems DuoSet IC Human Phospho-EGF R ELISA (R&D Systems catalogue number #DYC1095).
40 μL of cells were seeded (10000 cells/well) in growth medium in Corning black, clear-bottomed 384-well plates and incubated at 37° C. with 5% CO2 overnight. […] Plates were incubated for a further 2 h and following aspiration of medium, 40 μL 1× lysis buffer was added to each well. Greiner black high bind 384-well plates were coated with capture antibody and then blocked with 3% BSA. Following removal of block, 15 μL of lysate were transferred to the Greiner black high bind 384-well plates and incubated for 2 hours. Following aspiration and washing of the plates with PBS, 20 μL of detection antibody were added and incubated for 2 hours. […] 20 μL QuantaBlu stop solution were added to plates and fluorescence read on an Envision plate reader using
The data obtained with each compound was exported into a suitable software package (such as Origin) to perform curve fitting analysis.

Wild-type EGFR = biological target: T3, Wild-type EGFR (Homo sapiens, UniProt P00533); experiment: Wild-type EGFR cellular phosphorylation assay; details: LoVo human colon cells; endogenous p-EGFR in cell lysates by ELISA; 2 h with compound, then stimulated 100 ng/ml for 10 minutes; read-out: Assay 3 (IC50)
T3 construct: Assays to measure cellular phosphorylation of endogenous p-EGFR in cell lysates; endogenous in cells; host or cells: LoVo (human colon cell line)
T3 sequence (P00533 25-1210): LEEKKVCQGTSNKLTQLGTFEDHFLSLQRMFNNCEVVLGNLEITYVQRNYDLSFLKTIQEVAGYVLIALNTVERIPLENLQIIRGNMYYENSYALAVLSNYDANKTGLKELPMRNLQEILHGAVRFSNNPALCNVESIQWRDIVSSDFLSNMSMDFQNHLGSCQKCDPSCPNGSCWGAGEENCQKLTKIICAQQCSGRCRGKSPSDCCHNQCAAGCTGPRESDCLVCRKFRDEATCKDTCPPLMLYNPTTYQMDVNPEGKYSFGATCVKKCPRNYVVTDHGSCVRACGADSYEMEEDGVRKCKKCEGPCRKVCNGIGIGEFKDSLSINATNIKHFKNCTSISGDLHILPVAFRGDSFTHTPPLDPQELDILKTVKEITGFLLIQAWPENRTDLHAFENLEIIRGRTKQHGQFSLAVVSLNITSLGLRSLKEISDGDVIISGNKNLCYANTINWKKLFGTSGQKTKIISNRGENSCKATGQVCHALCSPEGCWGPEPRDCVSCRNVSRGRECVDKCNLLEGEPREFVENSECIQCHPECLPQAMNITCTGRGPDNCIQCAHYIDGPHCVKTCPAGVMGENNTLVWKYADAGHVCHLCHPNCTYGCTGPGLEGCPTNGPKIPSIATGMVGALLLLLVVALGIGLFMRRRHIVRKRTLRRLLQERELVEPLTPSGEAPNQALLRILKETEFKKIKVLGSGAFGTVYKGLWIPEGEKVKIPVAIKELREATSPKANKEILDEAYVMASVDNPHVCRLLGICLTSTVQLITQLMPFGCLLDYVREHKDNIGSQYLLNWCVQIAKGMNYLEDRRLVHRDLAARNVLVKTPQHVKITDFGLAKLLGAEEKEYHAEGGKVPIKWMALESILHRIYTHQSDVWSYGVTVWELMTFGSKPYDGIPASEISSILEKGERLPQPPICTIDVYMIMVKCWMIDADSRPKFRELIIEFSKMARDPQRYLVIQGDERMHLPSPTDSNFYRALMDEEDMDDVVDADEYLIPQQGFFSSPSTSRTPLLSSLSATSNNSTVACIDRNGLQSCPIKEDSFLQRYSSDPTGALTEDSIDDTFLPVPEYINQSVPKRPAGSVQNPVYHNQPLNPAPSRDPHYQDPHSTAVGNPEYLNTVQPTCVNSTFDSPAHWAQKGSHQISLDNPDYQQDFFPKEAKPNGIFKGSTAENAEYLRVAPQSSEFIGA
Protocol: Assay 3: Wild-Type EGFR Cellular Phosphorylation Assay
The human colon cell line LoVo were obtained from the American type Culture Collection. […] Cells were grown in a humidified incubator at 37° C. with 5% CO2. Assays to measure cellular phosphorylation of endogenous p-EGFR in cell lysates were carried out according to the protocol described in the R&D Systems DuoSet IC Human Phospho-EGF R ELISA (R&D Systems catalogue number #DYC1095). 40 μL of cells were seeded (15000 cells/well) in growth medium in Corning black, clear-bottomed 384-well plates and incubated at 37° C. with 5% CO2 overnight. […] Plates were incubated for a further 2 h then stimulated with 100 ng/ml for 10 minutes and following aspiration of medium, 40 μL 1× lysis buffer was added to each well. Greiner black high bind 384-well plates were coated with capture antibody and then blocked with 3% BSA. […] Following aspiration and washing of the plates with PBS, 20 μL of detection antibody were added and incubated for 2 hours. […] The data obtained with each compound was exported into a suitable software package (such as Origin) to perform curve fitting analysis.

Row | IC50 (Exon19 deletion EGFR) | IC50 (L858R/T790M EGFR) | IC50 (Wild-type EGFR) | Structure (SMILES)
1 | 53.3 nM | 19.1 nM | 12500 nM | C=CC(=O)Nc1cc(Nc2ncc(C#N)c(-c3cnn4ccccc34)n2)c(OC)cc1N1CCN(C)CC1 [Example 14, N-{5-[(5-Cyano-4-pyrazolo[1,5-a]pyridin-3-ylpyrimidin-2-yl)amino]-4-methoxy-2-[4-methylpiperazin-1-yl]phenyl}prop-2-enamide]
2 | 73.8 nM | 40 nM | 8430 nM | C=CC(=O)Nc1cc(Nc2ncc(Cl)c(-c3cnn4ccccc34)n2)c(OC)cc1N1CCN(CC(=O)N(C)C)CC1 [Example 10, N-{5-[(5-Chloro-4-pyrazolo[1,5-a]pyridin-3-ylpyrimidin-2-yl)amino]-2-[4-(2-dimethylamino-2-oxoethyl)piperazin-1-yl]-4-methoxyphenyl}prop-2-enamide]
3 | 5.61 nM | 11.4 nM | 318 nM | C=CC(=O)Nc1cc(Nc2ncc(C#N)c(-c3c[nH]c4ccccc34)n2)c(OC)cc1N1CCN(C)CC1 [Example 27, N-(5-{[5-Cyano-4-(1H-indol-3-yl)pyrimidin-2-yl]amino}-4-methoxy-2-{4-methylpiperazin-1-yl}phenyl)prop-2-enamide]
4 | 12.7 nM | 1.6 nM | 510 nM | C=CC(=O)Nc1cc(Nc2ncc(Cl)c(-c3cnn4ccccc34)n2)c(OC)cc1N1CC[C@@H](N(C)C)C1 [Example 4, N-{5-[(5-Chloro-4-pyrazolo[1,5-a]pyridin-3-ylpyrimidin-2-yl)amino]-2-[(3R)-3-dimethylaminopyrrolidin-1-yl]-4-methoxyphenyl}prop-2-enamide]
5 | 144 nM | 70.5 nM | > 18900 nM | C=CC(=O)Nc1cc(Nc2nccc(-c3cnn4ccccc34)n2)c(OC)cc1N1CCN(C)CC1 [Example 16, N-[4-Methoxy-2-(4-methylpiperazin-1-yl)-5-[(4-pyrazolo[1,5-a]pyridin-3-ylpyrimidin-2-yl)amino]phenyl]prop-2-enamide]
6 | 16.9 nM | 17.6 nM | 3020 nM | C=CC(=O)Nc1cc(Nc2ncc(C#N)c(-c3cn(C)c4ccccc34)n2)c(OC)cc1N1CCN(C)CC1 [Example 23, N-(5-{[5-Cyano-4-(1-methylindol-3-yl)pyrimidin-2-yl]amino}-4-methoxy-2-{4-methylpiperazin-1-yl}phenyl)prop-2-enamide]
7 | 28.5 nM | 18.7 nM | 1600 nM | C=CC(=O)Nc1cc(Nc2ncc(Cl)c(-c3cnn4ccccc34)n2)c(OC)cc1N1CCN(C(=O)[C@H](C)N)CC1 [Example 11, (S)—N-{2-[4-(2-Aminopropanoyl)piperazin-1-yl]-5-[(5-chloro-4-pyrazolo[1,5-a]pyridin-3-ylpyrimidin-2-yl)amino]-4-methoxyphenyl}prop-2-enamide]

The next lines start with the compound.

Row | Structure (SMILES) | IC50 (Exon19 deletion EGFR) | IC50 (L858R/T790M EGFR) | IC50 (Wild-type EGFR)
8 | C=CC(=O)Nc1cc(Nc2nccc(-c3cnn4ccccc34)n2)c(OC)cc1N1CC[C@@H]2CN(C)C[C@@H]21 [Example 55, N-[2-[(3aR,6aR)-5-Methyl-2,3,3a,4,6,6a-hexahydropyrrolo[3,4-b]pyrrol-1-yl]-4-methoxy-5-[(4-pyrazolo[1,5-a]pyridin-3-ylpyrimidin-2-yl)amino]phenyl]prop-2-enamide] | 6.43 nM | 2.86 nM | 507 nM
9 | C=CC(=O)Nc1cc(Nc2nccc(-c3cnn4ccccc34)n2)c(OC)cc1N1CC(N(C)C)C1 [Example 53, N-{2-(3-Dimethylaminoazetidin-1-yl)-4-methoxy-5-[(4-pyrazolo[1,5-a]pyridin-3-ylpyrimidin-2-yl)amino]phenyl}prop-2-enamide] | 35.4 nM | 28.2 nM | 2640 nM
10 | C=CC(=O)Nc1cc(Nc2ncc(Cl)c(-c3cn(C)c4ccccc34)n2)c(OC)cc1N1CC[C@@H](N(C)C)C1 [Example 21, N-(5-{[5-Chloro-4-(1-methylindol-3-yl)pyrimidin-2-yl]amino}-2-{(3R)-3-dimethylaminopyrrolidin-1-yl}-4-methoxyphenyl)prop-2-enamide] | 2.95 nM | 2.34 nM | 128 nM
11 | C=CC(=O)Nc1cc(Nc2ncc(C)c(-c3cn(C)c4ccccc34)n2)c(OC)cc1N1CC[C@@H](N(C)C)C1 [Example 20, N-(2-{(3R)-3-Dimethylaminopyrrolidin-1-yl}-4-methoxy-5-{[5-methyl-4-(1-methylindol-3-yl)pyrimidin-2-yl]amino}phenyl)prop-2-enamide] | 7.49 nM | 5.28 nM | 193 nM
12 | C=CC(=O)Nc1cc(Nc2nccc(-c3cnn4ccccc34)n2)c(OC)cc1N1CC2(CCCN2C)C1 [Example 56, N-{4-Methoxy-2-[8-methyl-2,8-diazaspiro[3.4]octan-2-yl]-5-[(4-pyrazolo[1,5-a]pyridin-3-ylpyrimidin-2-yl)amino]phenyl}prop-2-enamide] | 44.3 nM | 29.2 nM | 3500 nM
13 | C=CC(=O)Nc1cc(Nc2ncc(Cl)c(-c3cn(C)c4ccccc34)n2)c(OC)cc1N(C)CCN(C)C [Example 26, N-(5-{[5-Chloro-4-(1-methylindol-3-yl)pyrimidin-2-yl]amino}-2-{2-dimethylaminoethyl-methylamino}-4-methoxyphenyl)prop-2-enamide] | 2.29 nM | 1.93 nM | 58.3 nM
14 | C=CC(=O)Nc1cc(Nc2ncc(Cl)c(-c3cnn4ccccc34)n2)c(OC)cc1C1=CCN(C)CC1 [Example 9, N-{5-[(5-Chloro-4-pyrazolo[1,5-a]pyridin-3-ylpyrimidin-2-yl)amino]-4-methoxy-2-[1-methyl-3,6-dihydro-2H-pyridin-4-yl]phenyl}prop-2-enamide] | 9.96 nM | 2.82 nM | 874 nM
15 | C=CC(=O)Nc1cc(Nc2ncc(Cl)c(-c3c[nH]c4ccccc34)n2)c(OC)cc1N1CC[C@@H](N(C)C)C1 [Example 24, N-(5-{[5-Chloro-4-(1H-indol-3-yl)pyrimidin-2-yl]amino}-2-{(3R)-3-dimethylaminopyrrolidin-1-yl}-4-methoxyphenyl)prop-2-enamide] | 1.33 nM | 0.886 nM | 35.7 nM
16 | C=CC(=O)Nc1cc(Nc2nccc(-c3cnn4c3CCCC4)n2)c(OC)cc1N1CC[C@@H](N(C)C)C1 [Example 44, N-(2-{(3R)-3-Dimethylaminopyrrolidin-1-yl}-4-methoxy-5-{[4-(4,5,6,7-tetrahydropyrazolo[1,5-a]pyridin-3-yl)pyrimidin-2-yl]amino}phenyl)prop-2-enamide] | 33.3 nM | 25.6 nM | 3640 nM
17 | C=CC(=O)Nc1cc(Nc2ncc(C)c(-c3cn(C)c4ccccc34)n2)c(OC)cc1N(C)CCN(C)C [Example 19, N-(2-{2-Dimethylaminoethyl-methylamino}-4-methoxy-5-{[5-methyl-4-(1-methylindol-3-yl)pyrimidin-2-yl]amino}phenyl)prop-2-enamide] | 2.15 nM | 1.46 nM | 70.8 nM
